From patent US9695155B2, “Herbicidal substituted pyrimidinyloxy benzene compounds” (E. I. DU PONT DE NEMOURS AND COMPANY, priority 2013, dated 2017)

Key:
[1] = system: wheat, winter; assay: Test C postemergence; format: in vivo, Triticum aestivum; settings: for Plant response rating, Wheat: scale 0 to 100 (0 no effect, 100 complete control)
Outline: (§1)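 Preemergence: seeds sown in a loam soil–sand blend and sprayed with test chemical in a non-phytotoxic solvent mixture containing surfactant. Postemergence: plants at 2 to 18 cm (1- to 4-leaf stage) in peat-based medium, treated with the same formulation. Greenhouse 13 to 15 days, then visual rating 0 (no effect) to 100 (complete control).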

[2] = system: lambsquarters; assay: Test C postemergence; format: in vivo, Chenopodium album; settings: for Plant response rating, Lambsquarters: scale 0 to 100 (0 no effect, 100 complete control)
Outline: as §1

[3] = system: yellow nutsedge; assay: Test C preemergence; format: in vivo, Cyperus esculentus; settings: for Nutsedge, Yellow plant response rating: preemergence; for Plant response rating, Nutsedge, Yellow: Preemergence, 31 g ai/ha, scale 0 to 100, 0 no effect, 100 complete control
Outline: as §1

[4] = system: giant foxtail; assay: Test A preemergence; format: in vivo, Setaria faberii; settings: for Plant response rating, Foxtail, Giant: 125 g ai/ha; for Foxtail, Giant plant response rating: 500 g ai/ha
Outline: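 Scoring: eye-based comparison with untreated controls, 0 for no effect through 100 for complete control, at about day 10. Treatments: directed soil spray preemergence; foliar spray postemergence on 2–10 cm plants at the one- to two-leaf stage. Medium: loam soil with sand.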

[5] = system: wild oat; assay: Test C postemergence; format: in vivo, Avena fatua; settings: for Plant response rating, Oat, Wild: scale 0 to 100 (0 no effect, 100 complete control)
Outline: as §1

[6] = system: soybean; assay: Test C preemergence; format: in vivo, Glycine max; settings: for Soybean plant response rating: preemergence; for Plant response rating, Soybean: Preemergence, 31 g ai/ha, scale 0 to 100, 0 no effect, 100 complete control
Outline: as §1

[7] = system: blackgrass; assay: Test C postemergence; format: in vivo, Alopecurus myosuroides
Outline: as §1

[8] = system: velvetleaf; assay: Test C preemergence; format: in vivo, Abutilon theophrasti; settings: for Velvetleaf plant response rating: preemergence; for Plant response rating, Velvetleaf: Preemergence, 31 g ai/ha, scale 0 to 100, 0 no effect, 100 complete control
Outline: as §1

[9] = system: pigweed; assay: Test C preemergence; format: in vivo, Amaranthus retroflexus; settings: for Pigweed plant response rating: preemergence; for Plant response rating, Pigweed: Preemergence, 31 g ai/ha, scale 0 to 100, 0 no effect, 100 complete control
Outline: as §1

[10] = system: Italian ryegrass; assay: Test C postemergence; format: in vivo, Lolium multiflorum; settings: for Plant response rating, Ryegrass, Italian: scale 0 to 100 (0 no effect, 100 complete control)
Outline: as §1

[11] = system: ragweed; assay: Test C postemergence; format: in vivo, Ambrosia elatior; settings: for Plant response rating, Ragweed: scale 0 to 100 (0 no effect, 100 complete control)
Outline: as §1

[12] = system: yellow nutsedge; assay: Test C postemergence; format: in vivo, Cyperus esculentus; settings: for Plant response rating, Nutsedge, Yellow: scale 0 to 100 (0 no effect, 100 complete control)
Outline: as §1

[13] = system: pigweed; assay: Test C postemergence; format: in vivo, Amaranthus retroflexus; settings: for Plant response rating, Pigweed: scale 0 to 100 (0 no effect, 100 complete control)
Outline: as §1

[14] = system: rice; assay: Test B flooded paddy test; format: in vivo, Oryza sativa; settings: Flood, 250 g ai/ha; 0 to 100 scale where 0 is no effect and 100 is complete control
Outline: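 Plants were grown to the 2-leaf stage, then pots were flooded to 3 cm above the soil and compounds were applied directly into the paddy water. That depth was held throughout, and after 13 to 15 days in the greenhouse injury was rated visually against controls on a 0–100 scale (0 no effect, 100 complete control).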

[15] = Postemergence, 31 g ai/ha, 13 to 15 days
[16] = 16 g ai/ha, scale 0 to 100 (0 no effect, 100 complete control)
[17] = 62 g ai/ha, scale 0 (no effect) to 100 (complete control)
[18] = 125 g ai/ha, scale 0 (no effect) to 100 (complete control)
[19] = 0 to 100 scale where 0 is no effect and 100 is complete control
[20] = Postemergence, 31 g ai/ha, scale 0 to 100 (0 no effect, 100 complete control), 13 to 15 days
[21] = Postemergence, 62 g ai/ha, scale 0 to 100 (0 no effect, 100 complete control)
[22] = 16 g ai/ha, postemergence, 0 is no effect, 100 is complete control
[23] = 125 g ai/ha, postemergence, visual rating

CCOc1cnn(-c2c(C#N)cccc2Oc2ncc(F)cn2)c1 [Compound 89]
Plant response rating (0 to 100), Wheat ([1]; 125 g ai/ha, postemergence): 5 | Plant response rating, Wheat [1, 15]: 0 | Plant response rating, Wheat ([1]; Postemergence, 62 g ai/ha): 0 | Plant response rating (0 to 100), Lambsquarters ([2]; 125 g ai/ha, postemergence): 55 | Plant response rating, Lambsquarters [2, 15]: 30 | Plant response rating, Lambsquarters ([2]; Postemergence, 62 g ai/ha): 65 | Nutsedge, Yellow plant response rating [3, 16]: 0 | Nutsedge, Yellow plant response rating [3, 17]: 10 | Nutsedge, Yellow plant response rating [3, 18]: 70 | Plant response rating, Nutsedge, Yellow [3]: 5 | Plant response rating, Foxtail, Giant [4, 19]: 90 | Foxtail, Giant plant response rating ([4]; 0 to 100 scale, 0 no effect, 100 complete control, approx. 10 days): 90 | Plant response rating (0 to 100), Oat, Wild ([5]; 125 g ai/ha, postemergence): 15 | Plant response rating, Oat, Wild [5, 15]: 5 | Plant response rating, Oat, Wild ([5]; Postemergence, 62 g ai/ha): 5 | Soybean plant response rating [6, 16]: 30 | Soybean plant response rating [6, 17]: 90 | Soybean plant response rating [6, 18]: 98 | Plant response rating, Soybean [6]: 45 | Blackgrass plant response rating ([7]; 16 g ai/ha, postemergence, visual rating, scale 0 to 100 (0 no effect, 100 complete control), 13 to 15 days): 0 | Plant response rating (0 to 100), Blackgrass ([7]; 125 g ai/ha, postemergence): 5 | Plant response rating, Blackgrass [7, 20]: 0 | Plant response rating, Blackgrass [7, 21]: 5 | Velvetleaf plant response rating [8, 16]: 20 | Velvetleaf plant response rating [8, 17]: 100 | Velvetleaf plant response rating [8, 18]: 100 | Plant response rating, Velvetleaf [8]: 70 | Pigweed plant response rating [9, 16]: 55 | Pigweed plant response rating [9, 17]: 100 | Pigweed plant response rating [9, 18]: 100 | Plant response rating, Pigweed [9]: 90 | Plant response rating (0 to 100), Ryegrass, Italian ([10]; 125 g ai/ha, postemergence): 5 | Plant response rating, Ryegrass, Italian [10, 15]: 0 | Plant response rating, Ryegrass, Italian ([10]; Postemergence, 62 g ai/ha): 5 | Plant response rating (0 to 100), Ragweed ([11]; 125 g ai/ha, postemergence): 70 | Plant response rating, Ragweed [11, 15]: 40 | Plant response rating, Ragweed ([11]; Postemergence, 62 g ai/ha): 60 | Plant response rating (0 to 100), Nutsedge, Yellow ([12]; 125 g ai/ha, postemergence): 5 | Plant response rating, Nutsedge, Yellow [12, 15]: 5 | Plant response rating, Nutsedge, Yellow ([12]; Postemergence, 62 g ai/ha): 20 | Plant response rating (0 to 100), Pigweed ([13]; 125 g ai/ha, postemergence): 40 | Plant response rating, Pigweed [13, 15]: 35 | Plant response rating, Pigweed ([13]; Postemergence, 62 g ai/ha): 35 | Plant response rating, Rice [14]: 20

Clc1cnc(Oc2cccc(Br)c2-n2cc(Br)nn2)nc1 [Compound 129]
Plant response rating (0 to 100), Wheat [1, 22]: 0 | Plant response rating, Wheat [1, 23]: 5 | Plant response rating, Wheat ([1]; Postemergence, 62 g ai/ha): 0 | Plant response rating (0 to 100), Lambsquarters [2, 22]: 35 | Plant response rating, Lambsquarters [2, 23]: 85 | Plant response rating, Lambsquarters ([2]; Postemergence, 62 g ai/ha): 80 | Nutsedge, Yellow plant response rating [3, 16]: 0 | Nutsedge, Yellow plant response rating [3, 17]: 5 | Nutsedge, Yellow plant response rating [3, 18]: 25 | Plant response rating, Nutsedge, Yellow [3]: 0 | Plant response rating, Foxtail, Giant [4, 19]: 100 | Foxtail, Giant plant response rating [4, 19]: 100 | Plant response rating (0 to 100), Oat, Wild [5, 22]: 0 | Plant response rating, Oat, Wild [5, 23]: 10 | Plant response rating, Oat, Wild ([5]; Postemergence, 62 g ai/ha): 15 | Soybean plant response rating [6, 16]: 10 | Soybean plant response rating [6, 17]: 40 | Soybean plant response rating [6, 18]: 80 | Plant response rating, Soybean [6]: 10 | Plant response rating (0 to 100), Blackgrass [7, 22]: 5 | Plant response rating, Blackgrass ([7]; 125 g ai/ha, postemergence, visual rating, scale 0 to 100 (0 no effect, 100 complete control)): 10 | Plant response rating, Blackgrass [7, 20]: 5 | Plant response rating, Blackgrass [7, 21]: 5 | Velvetleaf plant response rating [8, 16]: 35 | Velvetleaf plant response rating [8, 17]: 100 | Velvetleaf plant response rating [8, 18]: 100 | Plant response rating, Velvetleaf [8]: 70 | Pigweed plant response rating [9, 16]: 98 | Pigweed plant response rating [9, 17]: 100 | Pigweed plant response rating [9, 18]: 100 | Plant response rating, Pigweed [9]: 100 | Plant response rating (0 to 100), Ryegrass, Italian [10, 22]: 0 | Plant response rating, Ryegrass, Italian [10, 23]: 5 | Plant response rating, Ryegrass, Italian ([10]; Postemergence, 62 g ai/ha): 20 | Plant response rating (0 to 100), Ragweed [11, 22]: 15 | Plant response rating, Ragweed [11, 23]: 85 | Plant response rating, Ragweed ([11]; Postemergence, 62 g ai/ha): 40 | Plant response rating (0 to 100), Nutsedge, Yellow [12, 22]: 0 | Plant response rating, Nutsedge, Yellow [12, 23]: 10 | Plant response rating, Nutsedge, Yellow ([12]; Postemergence, 62 g ai/ha): 5 | Plant response rating (0 to 100), Pigweed [13, 22]: 70 | Plant response rating, Pigweed [13, 23]: 90 | Plant response rating, Pigweed ([13]; Postemergence, 62 g ai/ha): 80 | Plant response rating, Rice [14]: 0
